In patent US8809278B2, “Cyclic tetrapeptides” (University of Kansas, priority 2008, dated 2014):
“Also recorded” adds a separate entry of the source. Where two headings read alike, the source gives them in different places. Where a SMILES comes first, the peptide text is derived from it.

Assays:
[1] = tested on: kappa-opioid receptor (KOR); conditions: literature reports; cited from earlier work
[2] = biological target: κ opioid receptors (KOR); assay type: binding; conditions: for Ki: [3H]diprenorphine
Method: (§1) Opioid receptor affinities were determined for the cyclic tetrapeptides using Chinese hamster ovary cells stably expressing κ, μ and δ opioid receptors, and their efficacies at κ opioid receptors were determined in the adenylyl cyclase assay as previously described (Arttamangkul, et al., J. Med. Chem. 1997, 40, 1211-1218; Soderstrom, et al., Eur. J. Pharmacol. 1997, 338, 191-197). [^3H]Diprenorphine, [^3H][D-Ala^2,NMePhe^4,glyol]enkephalin and [^3H]cyclo[D-Pen^2,D-Pen^5]enkephalin were used as the radioligands in the binding assays for κ, μ and δ opioid receptors, respectively. In the adenylyl cyclase assay, the efficacies were determined by measuring the inhibition of adenylyl cyclase by 10 μM of the peptides relative to dynorphin A-(1-13) amide (100%).
(§2) The study was done using [^3H]diprenorphine, [^3][D-Ala^2,NMePhe^4,glyol]enkephalin and [^3H]cyclo[D-Pen^2,D-Pen^5]enkephalin binding to CHO membranes expressing KOR, MOR and DOR, respectively.

[3] = biological target: T1, μ opioid receptors (MOR) (Rattus norvegicus, UniProt P33535); experiment: Radioligand binding, μ opioid receptor, CHO cells ([3H][D-Ala2,NMePhe4,glyol]enkephalin)
T1 construct: expressed in transfected cells
T1 sequence (P33535 whole entry): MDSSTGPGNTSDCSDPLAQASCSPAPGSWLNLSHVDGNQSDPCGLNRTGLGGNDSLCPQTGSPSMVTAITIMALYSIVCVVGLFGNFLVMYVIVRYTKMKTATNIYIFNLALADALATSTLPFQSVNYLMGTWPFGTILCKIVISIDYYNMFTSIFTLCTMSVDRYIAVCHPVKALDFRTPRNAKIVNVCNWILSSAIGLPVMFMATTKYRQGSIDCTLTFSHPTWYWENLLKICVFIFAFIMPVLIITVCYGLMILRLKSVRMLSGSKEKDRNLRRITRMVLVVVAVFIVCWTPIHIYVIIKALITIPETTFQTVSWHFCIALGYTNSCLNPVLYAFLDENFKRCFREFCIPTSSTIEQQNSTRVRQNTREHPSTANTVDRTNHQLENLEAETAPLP
Method: as §1, §2

[4] = biological target: T2, δ opioid receptors (DOR) (Mus musculus, UniProt P32300); experiment: Radioligand binding, δ opioid receptor, CHO cells ([3H]cyclo[D-Pen2,D-Pen5]enkephalin)
T2 construct: expressed in transfected cells
T2 sequence (P32300 whole entry): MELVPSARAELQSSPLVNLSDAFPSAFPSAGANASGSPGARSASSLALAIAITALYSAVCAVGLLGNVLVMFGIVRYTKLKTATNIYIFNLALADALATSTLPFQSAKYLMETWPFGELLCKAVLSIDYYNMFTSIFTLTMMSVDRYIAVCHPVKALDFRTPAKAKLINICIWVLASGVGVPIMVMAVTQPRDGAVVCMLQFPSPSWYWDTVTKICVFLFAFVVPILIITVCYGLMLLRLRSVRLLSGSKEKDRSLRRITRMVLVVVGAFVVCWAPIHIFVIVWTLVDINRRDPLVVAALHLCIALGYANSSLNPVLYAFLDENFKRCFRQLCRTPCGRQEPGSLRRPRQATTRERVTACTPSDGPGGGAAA
Method: as §1, §2

[5] = biological target: T3, KOR in mouse brain (Mus musculus, UniProt P33534); experiment: Affinity for KOR in mouse brain; assay type: binding
T3 construct: from tissue; host or cells: mouse brain
T3 sequence (P33534 whole entry): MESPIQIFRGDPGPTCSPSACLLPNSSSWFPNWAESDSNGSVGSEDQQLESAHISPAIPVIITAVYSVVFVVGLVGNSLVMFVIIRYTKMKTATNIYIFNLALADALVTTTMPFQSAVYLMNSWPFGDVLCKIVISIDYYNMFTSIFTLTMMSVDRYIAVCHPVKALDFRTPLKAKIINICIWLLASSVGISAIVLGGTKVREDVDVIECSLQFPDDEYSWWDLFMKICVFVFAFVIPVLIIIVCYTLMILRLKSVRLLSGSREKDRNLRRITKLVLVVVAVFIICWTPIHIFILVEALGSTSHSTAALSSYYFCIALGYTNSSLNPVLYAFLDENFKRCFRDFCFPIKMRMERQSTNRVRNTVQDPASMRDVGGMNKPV

[6] = tested on: C57B1/6J mice; experiment: 55° C. warm-water tail-withdrawal assay, agonist (antinociceptive) activity; assay type: in vivo, mouse; conditions: for agonist activity in the 55° C. warm water tail withdrawal assay: i.c.v. administration; for pattern of opioid activity in vivo: tail-withdrawal assay
Method: (§3) An antinociceptive (analgesic) assay was performed to test the KOR agonist activity of cyclic tetrapeptides cyclo[Trp-Phe-D-Pro-Phe] […] After determining baseline tail-withdrawal latencies, mice received a single intracerebroventricular (i.c.v.) dose of vehicle (artificial cerebrospinal fluid, 146 mM NaCl, 2.7 mM KCl, 1.2 mM, CaCl2, 1.0 mM MgCl2) or a dose of test compound i.c.v. and the tail-withdrawal latency was again measured. For i.c.v. injections, each mouse was lightly anesthetized with isoflurane, an incision was made in the scalp, and the injection was made 2 mm lateral and 2 mm caudal to bregma at a depth of 3 mm directly into the lateral ventricle, as detailed previously (McLaughlin et al., 1999). The volume of these injections was 5 μl, using a 10-μl Hamilton microliter syringe. Reference agonists and antagonists were administered either subcutaneously (s.c.) or interperitoneally (i.p.) in 0.9% saline at the doses and times indicated in the figure legends (negative numbers indicate time prior to tail-withdrawal assay).

[7] = biological target: T4, κ opioid receptors (Rattus norvegicus, UniProt P34975); experiment: Adenylyl cyclase assay (efficacy at κ opioid receptors); assay type: cell-based; conditions: 10 μM peptide; relative to dynorphin A-(1-13) amide (100%)
T4 construct: expressed in transfected cells
T4 sequence (P34975 whole entry): as the sequence (P33534 whole entry) above, with D11E, S17A, S51P, A308V counted along it
Method: as §1

[8] = biological target: T5, KOR (Mus musculus, UniProt P33534); experiment: 55° C. warm-water tail-withdrawal assay, antagonism of the KOR selective agonist U50,488; assay type: in vivo; conditions: for antagonism of the KOR selective agonist U50,488: tested 2-2.5 hours after peptide administration, i.c.v.; for duration of KOR antagonist activity: mice, tail-withdrawal assay
T5 construct: from tissue; host or cells: living C57Bl/6J mice (in vivo)
T5 sequence (P33534 whole entry): as the sequence (P33534 whole entry) above
Method: as §3
The ability of the cyclic tetrapeptides to function as KOR antagonists were studied by assessing the ability to antagonize the KOR selective agonist U50,488. […] Briefly, the antagonistic activity was tested 2-2.5 hours after peptide administration.
The duration of KOR antagonism of the cyclic tetrapeptides was studied.

[9] = biological target: T6, DOR (Mus musculus, UniProt P32300); experiment: 55° C. warm-water tail-withdrawal assay, antagonism of the DOR selective agonist SNC-80; assay type: in vivo; conditions: mice
T6 construct: from tissue; host or cells: living C57Bl/6J mice (in vivo)
T6 sequence (P32300 whole entry): as the sequence (P32300 whole entry) above
Method: as §3
(§4) The ability of JVA-2802 to selectively antagonize an opioid receptor was studied. Briefly, the antagonistic activity of JVA-2802 was studied for MOR, DOR, and KOR activity by the ability to antagonize the MOR selective agonist morphine, the DOR selective agonist SNC-80, and the KOR selective agonist U50,488.

[10] = tested on: C57B1/6J mice; experiment: Stress-induced reinstatement of cocaine conditioned place preference; assay type: in vivo, mouse; conditions: 3 nmol i.c.v. 40 minutes prior to forced swim stress
Method: The establishment of cocaine conditioned place preference (CPP), extinction and stress-induced reinstatement of cocaine CPP were preformed in C57B1/6J mice as previously described (Carey, A. N.; Borozny, K.; Aldrich, J. V.; McLaughlin, J. P. Reinstatement of cocaine place-conditioning prevented by the peptide kappa-opioid receptor antagonist arodyn. Eur. J. Pharmacol. 2007, 569, 84-89). […] Place conditioning subsequently began immediately following cocaine administration (10 mg/kg s.c), whereupon mice were consistently confined for 30 min in the appropriate compartment in the CPP apparatus. Conditioning with assay vehicle (0.9% saline) followed 4 hours later in a similar manner, but paired to the opposite chamber. This conditioning cycle was repeated once on each of four days. On the fifth day, mice were again allowed to freely move through the apparatus. […]
One group of animals was then subjected to a 2-day forced swim stress protocol (with a single long swim (15 minutes) on day 1, and a series of four 6-minutes trials on day 2) to produce reinstatement of cocaine CPP. […] One hour after the final exposure to forced swim stress, the place preference responses of the mice were determined as described above to determine possible reinstatement of cocaine CPP (FIG. 6, middle panel). […]

[11] = biological target: T7, MOR (Mus musculus, UniProt P42866); experiment: 55° C. warm-water tail-withdrawal assay, antagonism of the MOR selective agonist morphine; assay type: in vivo; conditions: mice
T7 construct: from tissue; host or cells: living C57Bl/6J mice (in vivo)
T7 sequence (P42866 whole entry): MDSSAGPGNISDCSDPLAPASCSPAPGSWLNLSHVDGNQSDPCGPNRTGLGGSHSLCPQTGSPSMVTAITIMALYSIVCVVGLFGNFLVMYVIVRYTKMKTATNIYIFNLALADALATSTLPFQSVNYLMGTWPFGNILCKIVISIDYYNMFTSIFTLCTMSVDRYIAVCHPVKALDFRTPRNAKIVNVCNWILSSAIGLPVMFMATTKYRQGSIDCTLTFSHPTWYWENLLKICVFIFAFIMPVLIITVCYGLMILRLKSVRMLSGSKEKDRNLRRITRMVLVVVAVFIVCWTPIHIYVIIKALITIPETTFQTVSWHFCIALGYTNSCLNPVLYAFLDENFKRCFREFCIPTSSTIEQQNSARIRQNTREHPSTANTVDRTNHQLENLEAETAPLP
Method: as §3, §4

[12] = CHO membranes expressing KOR, read-out: KOR Ki
[13] = CHO membranes expressing MOR, read-out: MOR Ki
[14] = CHO membranes expressing DOR, read-out: DOR Ki
[15] = CHO cells stably expressing κ receptors, (n) in brackets, read-out: Ki (nM ± SEM) κ
[16] = CHO cells stably expressing μ receptors, (n) in brackets, read-out: Ki (nM ± SEM) μ
[17] = CHO cells stably expressing δ receptors, (n) in brackets, read-out: Ki (nM ± SEM) δ

SMILES	Ki [2, 12]	Ki [3, 13]	Ki [4, 14]	Ki [2, 15]	agonist activity in the 55° C. warm water tail withdrawal assay [6]	Cyclase screen (% control) [7]	Ki [3, 16]	antagonism of the KOR selective agonist U50,488 [8]	Ki [4, 17]	duration of KOR antagonist activity [8]	also measured
CC(C)[C@@H](CN1CC[C@@](C)(c2cccc(O)c2)[C@@H](C)C1)NC(=O)[C@H]1Cc2ccc(O)cc2CN1 [JDTic]											stress-induced reinstatement of cocaine-seeking behavior [1]: block stress-induced reinstatement
C[C@@H]1C(=O)N[C@@H](Cc2ccccc2)C(=O)N[C@H](Cc2c[nH]c3ccccc23)C(=O)N[C@@H](Cc2ccccc2)C(=O)N1C [JVA 3001] (HELM PEPTIDE1{F.[C[C@H](C(=O)[*:2])N(C)[*:1]].F.[dW]}$PEPTIDE1,PEPTIDE1,1:R1-4:R2$$$V2.0)	68.9 nM	58.1 nM	5690 nM								
C[C@H]1NC(=O)[C@H](Cc2ccccc2)NC(=O)[C@H]2CCCN2C(=O)[C@H](Cc2ccccc2)NC1=O [JVA 3002]	1250 nM	774 nM	11000 nM								
C[C@@H]1NC(=O)[C@H]2CCCN2C(=O)[C@H](Cc2ccccc2)NC(=O)[C@@H](Cc2c[nH]c3ccccc23)NC1=O [JVA 3004] (HELM PEPTIDE1{A.[dW].F.[dP]}$PEPTIDE1,PEPTIDE1,1:R1-4:R2$$$V2.0)	169 nM	186 nM	18000 nM								
O=C1N[C@@H](Cc2ccccc2)C(=O)N2CCC[C@@H]2C(=O)N[C@@H](Cc2ccccc2)C(=O)N[C@H]1Cc1c[nH]c2ccccc12 [JVA-2801, cyclo[Trp-Phe-D-Pro-Phe]] (HELM PEPTIDE1{F.W.F.[dP]}$PEPTIDE1,PEPTIDE1,1:R1-4:R2$$$V2.0)				35.4 ± 3.6 nM	can function as agonists; also recorded: robust agonist activity	119%	619 ± 87 nM	dose-dependent antagonism	4150 ± 3020 nM		Ki [5]: ~21 nM; reversal of agonist activity by the KOR selective antagonist nor-BNI ([6]; i.c.v. peptide): partially reversed; reversal of agonist activity by the MOR selective antagonist β-FNA ([6]; i.c.v. peptide): completely reversed
O=C1N[C@H](Cc2c[nH]c3ccccc23)C(=O)N[C@@H](Cc2ccccc2)C(=O)N2CCC[C@@H]2C(=O)N[C@H]1Cc1ccccc1 [JVA-2802, cyclo[D-Trp-Phe-D-Pro-Phe]] (HELM PEPTIDE1{F.[dP].F.[dW]}$PEPTIDE1,PEPTIDE1,1:R1-4:R2$$$V2.0)				30.6 ± 3.4 nM	did not show any agonist activity; also recorded: did not exhibit any agonist activity	127%	259 ± 29 nM	dose-dependent antagonism	2910 ± 1350 nM	less than a day	antagonism of the DOR selective agonist SNC-80 [9]: does not antagonize; stress-induced reinstatement of cocaine conditioned place preference [10]: blocks stress-induced reinstatement; antagonism of the MOR selective agonist morphine [11]: does not antagonize
C[C@@H]1NC(=O)[C@H](Cc2c[nH]c3ccccc23)NC(=O)[C@H](Cc2ccccc2)NC(=O)[C@H]2CCCN2C1=O [JVA-2803, cyclo[Trp-Ala-D-Pro-Phe]] (HELM PEPTIDE1{A.[dP].F.W}$PEPTIDE1,PEPTIDE1,1:R1-4:R2$$$V2.0)				8.03 ± 1.67 nM	can function as agonists; also recorded: more potent than JVA-2801	122%	32.1 ± 3.9 nM	more potent than JVA-2801	8680 ± 1270 nM	less than a day	fold higher KOR affinity than the parent peptide ([2]; relative to parent (Phe) peptide / CJ-15,208): 4 fold; pattern of opioid activity in vivo [6]: exhibit both agonist activity and KOR antagonist activity; fold higher MOR affinity than JVA-2801 ([3]; relative to JVA-2801): 19 fold; antagonism of the KOR selective agonist U50,488 ([8]; listed as 2803): exhibits KOR antagonist activity
C[C@@H]1NC(=O)[C@@H](Cc2c[nH]c3ccccc23)NC(=O)[C@H](Cc2ccccc2)NC(=O)[C@H]2CCCN2C1=O [JVA-3003, cyclo[D-Trp-Ala-D-Pro-Phe]] (HELM PEPTIDE1{A.[dP].F.[dW]}$PEPTIDE1,PEPTIDE1,1:R1-4:R2$$$V2.0)	2.81 nM	27.3 nM	833 nM	3.15 ± 0.41 nM	can function as an agonist; also recorded: robust agonist activity	75%		exhibits KOR antagonist activity	8330 ± 1220 nM	less than a day	pattern of opioid activity in vivo [6]: exhibits a pattern similar to the L-Trp peptides
